# Assay results taken from paper PMC10025480 (Frontiers in Pharmacology, 2023).
# Test system: HEK293 cells
# Experiment: Whole-cell patch clamp (QPatch), parental HEK cells lacking TMEM16A
# Type: cell-based
# Details: compared with HEK-TMEM16Aacd cells at 0 nM [Ca2+]i
# Description: Current rectification ratios were calculated by dividing the magnitude of the outward current at +90 mV by the magnitude of the inward current at −90 mV.
structure (smiles),measurement,value
O=C(Nc1ccc([N+](=O)[O-])cc1Cl)c1cc(Cl)ccc1O [niclosamide],effect on currents in parental HEK cell line,Quantitatively similar effects
